According to patent US20220326218A1, “COMPOSITION AND METHOD FOR INHIBITING BORC COMPLEX TO TREAT CANCERS WITH NF1 DEFICIENCY AND DYSREGULATED RAS SIGNALING” (THE TRUSTEES OF DARTMOUTH COLLEGE, priority 2019, published 2022):

Experiments:
BNIP3L/Nix = assay: Western immunoblotting of BNIP3L/Nix; format: cell-based, human; conditions: U87-MG, 2 μM, 24 h, 20 μM QVD pre-treatment
Experimental: U87-MG cells were plated at 500,000 cells/well in 6-well plates and allowed to adhere overnight (Falcon). Medium was removed and replaced with fresh medium containing drugs or compounds for the indicated timepoints. Cells were collected after treatment by washing with PBS, harvested with trypsin plus agitation to detach cells, pelleted in a centrifuge and resuspended in PBS to wash. Cells were transferred to 1.5 mL microcentrifuge tubes, pelleted, and resuspended in RIPA lysis buffer (50 mM Tris pH 8.0, 150 mM NaCl, 1% nonidet P40, 0.5% sodium deoxycholate, and 0.05% SDS) containing 1 mM NaVO4, 1 mM NaF, 1 mM phenylmethylsulfonyl fluoride, 0.1 μg/mL antipain, 1 μM aprotinin, 100 μM benzamidine HCl, 0.1 μg/mL leupeptin, 0.1 μg/mL pepstatin, and 0.1 μg/mL soybean trypsin inhibitor. Protein was quantified using a BCA assay kit (Pierce). 50 μg of protein was prepared in 1× Laemmli sample buffer (50 mM Tris pH 6.8, 0.02% w/v bromophenol blue, 2% w/v SDS, 10% v/v glycerol, 1% v/v beta-mercaptoethanol, 12.5 mM EDTA) and separated by SDS-PAGE on a 4-15% polyacrylamide gradient gel (Bio-Rad). […]

proteasomal active sites = biological target: T1, proteasomal active sites (Homo sapiens, UniProt P28072+P28074+Q99436); assay: MV-151 proteasome active site inhibition assay; format: cell-based; conditions: U87-MG; Y102 2 μM 24 h; positive control 1 μM Bortezomib and 10 μM MG-132 2 h
T1 construct: endogenous in cells; host or cells: U87-MG
Experimental: U87-MG cells were plated at 500,000 cells/well in 6-well plates and allowed to adhere overnight (Falcon). Medium was removed and replaced with fresh medium containing Y102 or vehicle DMSO and treated for 24 h. As a positive control, one well was treated for 2 h with 1 μM Bz/10 μM MG-132.
Cells were collected after treatment by washing with PBS, harvested with trypsin plus agitation to detach cells, spun down in a centrifuge, and resuspended in PBS to wash. Cells were transferred to 1.5 mL microcentrifuge tubes, pelleted, and resuspended in 20 μL digitonin lysis buffer (50 mM Tris HCl pH 7.5, 250 mM sucrose, 2 mM EDTA, 1 mM ATP, 1 mM DTT, and 0.05% digitonin). Cells were mixed by pipetting, incubated on ice for 20 minutes, and the lysate was cleared by centrifugation. Protein concentrations were determined using a Bradford protein assay (Bio-Rad). 10 μg of protein lysate was incubated for 20 minutes with 20 μM MV-151 in a 37° C. water bath. 4× loading dye was added to the samples and proteins were separated by sodium dodecyl sulfate-polyacrylamide gel electrophoresis (SDS-PAGE) on a 4-15% polyacrylamide gradient gel (Bio-Rad). Gel was imaged on a Typhoon scanner at an excitation of 532 nm and an emission of 560 nm to detect MV-151 fluorescence. Following imaging, proteins were transferred to nitrocellulose. The blot was probed for α-Tubulin as a loading control. […]

erg6Δ yeast = assay: Yeast dose response curves, control strains; format: cell-based, Saccharomyces cerevisiae; conditions: 30° C., 18 h, normalized to DMSO
Experimental: S. cerevisiae strains were plated at an OD600 of 0.05 in 96-well plates (Falcon) and treated with SC complete containing compound starting at 100 μM, followed by 2-fold serial dilutions to generate a 10-point range of concentrations normalized with DMSO; one row was treated with DMSO as a control. Yeast were incubated for 18 h. To process, the optical density was read using a Spectramax M2 (Molecular Devices) at a wavelength of 600 nm and normalized to DMSO. Each experiment was repeated 2-3 times with 4 technical replicates per experiment.
A high-throughput screen in Saccharomyces cerevisiae lacking a yeast homologue of NF1, IRA2 (ira2Δ) was developed and carried out to identify tool compounds that elicited synthetic lethality with NF1 loss (15). ira2Δ yeast have increased RAS-GTP, which results in increased MAPK and PKA signaling analogous to the pathways that are activated in NF1-deficient Schwann cells (17). […]
More than 5,100 structurally diverse compounds selected from and representative of a >340,000-compound library were screened. […] To determine whether Y102 was also effective in human tumor cells, the efficacy of Y102 was evaluated in two NF1-deficient human cancer cell line models of glioblastoma, U87-MG and U251-MG, and an NF1-deficient Neurofibromatosis type 1-associated MPNST cell line sNF96.2. […]

## Cn1cnnc1S/C=C/C(=O)c1ccc(F)cc1 [Y102]
BNIP3L/Nix
  BNIP3L/Nix protein levels versus DMSO: little difference
Proteasomal active sites
  inhibition of the proteasomal subunits (MV-151 competitive binding): not
erg6Δ yeast
  effect on growth of control strains at concentrations inhibitory to erg6Δira2Δ yeast: no effect
